Substitutions are numbered along the chain they refer to.

For orientation: Ki means a dissociation constant, usually derived from enzyme kinetics or from competition with a known ligand.

Holding throughout (test): biochemical
For assay [1], the target named is T1, Q150A mutant mouse 5-HT3ASR (Mus musculus, UniProt P23979, Q151A).
T1 sequence (P23979 24-483 isoform P23979-2 Q151A): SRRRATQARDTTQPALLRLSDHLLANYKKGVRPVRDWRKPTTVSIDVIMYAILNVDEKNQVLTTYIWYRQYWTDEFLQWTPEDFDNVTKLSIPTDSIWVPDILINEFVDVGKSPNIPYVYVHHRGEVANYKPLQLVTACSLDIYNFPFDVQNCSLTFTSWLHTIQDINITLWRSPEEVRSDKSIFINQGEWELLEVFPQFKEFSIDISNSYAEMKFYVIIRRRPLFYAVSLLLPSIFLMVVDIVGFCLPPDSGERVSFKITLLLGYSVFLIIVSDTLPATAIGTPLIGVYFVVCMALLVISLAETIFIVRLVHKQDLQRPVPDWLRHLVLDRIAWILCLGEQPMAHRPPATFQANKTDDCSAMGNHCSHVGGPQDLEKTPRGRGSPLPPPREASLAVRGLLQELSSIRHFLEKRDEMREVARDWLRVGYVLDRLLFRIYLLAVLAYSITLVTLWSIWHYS

Assay [2] addresses T2, R146A mutant mouse 5-HT3ASR (Mus musculus, UniProt P23979, R147A).
T2 sequence (P23979 24-483 isoform P23979-2 R147A): T1 sequence (P23979 24-483 isoform P23979-2 Q151A) with R124A, A128Q

For assay [3], the target named is T3, N151A mutant mouse 5-HT3ASR (Mus musculus, UniProt P23979, N152A).
T3 sequence (P23979 24-483 isoform P23979-2 N152A): T1 sequence (P23979 24-483 isoform P23979-2 Q151A) with A128Q, N129A

The target of assay [4] is T4, V143A mutant mouse 5-HT3ASR (Mus musculus, UniProt P23979, V144A).
T4 sequence (P23979 24-483 isoform P23979-2 V144A): T1 sequence (P23979 24-483 isoform P23979-2 Q151A) with V121A, A128Q

Assay [5] concerns the target T5, H145A mutant mouse 5-HT3ASR (Mus musculus, UniProt P23979, H146A).
T5 sequence (P23979 24-483 isoform P23979-2 H146A): T1 sequence (P23979 24-483 isoform P23979-2 Q151A) with H123A, A128Q

Assay [6] deals with T6, wildtype mouse 5-HT3ASR (Mus musculus, UniProt P23979).
T6 sequence (P23979 24-483 isoform P23979-2 limits assumed): T1 sequence (P23979 24-483 isoform P23979-2 Q151A) with A128Q

`COc1cc2c3cc1Oc1cc(ccc1O)C[C@@H]1c4c(cc(OC)c(O)c4Oc4ccc(cc4)C[C@@H]3N(C)CC2)CC[N+]1(C)C` [d-tc, d-tubocurarine]: the Ki was 9.3 ± 1.3 nM in assay [1]; 29 ± 4.9 nM in assay [2]; 9.3 ± 1.4 nM in assay [3]; 22 ± 2.6 nM in assay [4]; 19 ± 2.6 nM in assay [5]; 6 ± 2.1 nM in assay [6].

For the compound `c1ccc(Cn2c(N3CCNCC3)nc3ccccc32)cc1` [lerisetron], the Ki was found to be 1.1 ± 0.21 nM in assay [1]; 2.3 ± 0.31 nM in assay [2]; 3.7 ± 0.62 nM in assay [3]; 1.5 ± 0.41 nM in assay [4]; 0.42 ± 0.04 nM in assay [5]; 0.8 ± 0.19 nM in assay [6].

These data come from PMC117120 (BMC Biochemistry, 2002).
